According to US9956229B2, “Acyclic cucurbit[n]uril type molecular containers to treat intoxication and decrease relapse rate in substance abuse disorders” (UNIVERSITY OF MARYLAND, COLLEGE PARK, priority 2014, dated 2018):

Tests used:
[1] = Direct 1H NMR titration, 1:1 binding model; settings: 20 mM NaH2PO4 buffered (pH 7.4) D2O
Procedure: A direct titration was performed between the host and guest. The concentration of the host was kept constant while varying the concentration of the guest and the change in chemical shift of a selected host signal was measured. The change in chemical shift as a function of guest concentration was fitted to a 1:1 binding model to determine the Ka. In some cases, the concentration of guest was fixed and host concentration was varied, depending on the availability of a suitable ^1H NMR peak whose chemical shift change could be easily monitored.
1:1 Binding Model for NMR

ketamine anesthesia = experiment: EEG power and mean arterial pressure during continuous ketamine infusion; type: in vivo, rat; settings: escalating phenylephrine infusion 4 to 10 μg/kg/min; n=3

Row | Structure (SMILES) | Binding Constant with Host (Ka), morphine [1] | Binding Constant with Host (Ka), cocaine ([1]; 1:1 model) | Binding Constant with Host (Ka), ketamine ([1]; 1:1 model) | Binding Constant with Host (Ka), methamphetamine ([1]; 1:1 model) | Binding Constant with Host (Ka), phencyclidine ([1]; 1:1 model) | Binding Constant with Host (Ka), ketamine ([1]; 1:1 model, listed as 4-suldo calix[4]arene) | effect on MAP and EEG power during steady state shallow ketamine anesthesia (ketamine anesthesia)
1 | O=S(=O)(O)c1cc2c(O)c(c1)Cc1cc(S(=O)(=O)O)cc(c1O)Cc1cc(S(=O)(=O)O)cc(c1O)Cc1cc(S(=O)(=O)O)cc(c1O)C2 [4-sulfo calix[4]arene] | (4.9±0.3)×10^4 M^−1 | (4.3±1.5)×10^4 M^−1 | ~10^5 M^−1 | (3.8±0.6)×10^4 M^−1 | (5.0±0.6)×10^4 M^−1 | ~10^5 M^−1 | 
2 | O=C1N2CN3C(=O)N4CN5C(=O)N6CN7C(=O)N8CN9C(=O)N%10CN%11C(=O)N%12CN%13C(=O)N%14CN1C1C2N2CN%15C(=O)N(CN%16C(=O)N(CN%17C(=O)N(CN%18C(=O)N(CN%19C(=O)N(CN%20C(=O)N(CN1C2=O)C%14C%13%20)C%12C%11%19)C%10C9%18)C8C7%17)C6C5%16)C4C3%15 (centres unmarked) [CB[7], cucurbit[7]uril] | <10^3 M^−1 |  |  |  |  |  | 
3 | CNC[C@H](O)c1cccc(O)c1 [phenylephrine] |  |  |  |  |  |  | significant MAP increases without effects on EEG power
